Source: ChEMBL document CHEMBL2074201, “Cepharanthin, a multidrug resistant modifier, is a substrate for P-glycoprotein” (J Pharmacol Exp Ther, 1995)
pIC50: −log10 of the molar value.

Experiments:
[1] = biological target: T1, ATP-dependent translocase ABCB1 (Homo sapiens, UniProt P08183); assay: TP_TRANSPORTER: inhibition of Daunorubicin transepithelial transport (basal to apical) (Daunorubicin: 0.1 uM) in MDR1-expressing LLC-PK1 cells; type: functional, cell-based
[2] = biological target: T1, ATP-dependent translocase ABCB1; assay: TP_TRANSPORTER: transepithelial transport (basal to apical) in MDR1-expressing LLC-PK1 cells; type: functional, cell-based; settings: pig

T1 sequence (P08183 whole entry): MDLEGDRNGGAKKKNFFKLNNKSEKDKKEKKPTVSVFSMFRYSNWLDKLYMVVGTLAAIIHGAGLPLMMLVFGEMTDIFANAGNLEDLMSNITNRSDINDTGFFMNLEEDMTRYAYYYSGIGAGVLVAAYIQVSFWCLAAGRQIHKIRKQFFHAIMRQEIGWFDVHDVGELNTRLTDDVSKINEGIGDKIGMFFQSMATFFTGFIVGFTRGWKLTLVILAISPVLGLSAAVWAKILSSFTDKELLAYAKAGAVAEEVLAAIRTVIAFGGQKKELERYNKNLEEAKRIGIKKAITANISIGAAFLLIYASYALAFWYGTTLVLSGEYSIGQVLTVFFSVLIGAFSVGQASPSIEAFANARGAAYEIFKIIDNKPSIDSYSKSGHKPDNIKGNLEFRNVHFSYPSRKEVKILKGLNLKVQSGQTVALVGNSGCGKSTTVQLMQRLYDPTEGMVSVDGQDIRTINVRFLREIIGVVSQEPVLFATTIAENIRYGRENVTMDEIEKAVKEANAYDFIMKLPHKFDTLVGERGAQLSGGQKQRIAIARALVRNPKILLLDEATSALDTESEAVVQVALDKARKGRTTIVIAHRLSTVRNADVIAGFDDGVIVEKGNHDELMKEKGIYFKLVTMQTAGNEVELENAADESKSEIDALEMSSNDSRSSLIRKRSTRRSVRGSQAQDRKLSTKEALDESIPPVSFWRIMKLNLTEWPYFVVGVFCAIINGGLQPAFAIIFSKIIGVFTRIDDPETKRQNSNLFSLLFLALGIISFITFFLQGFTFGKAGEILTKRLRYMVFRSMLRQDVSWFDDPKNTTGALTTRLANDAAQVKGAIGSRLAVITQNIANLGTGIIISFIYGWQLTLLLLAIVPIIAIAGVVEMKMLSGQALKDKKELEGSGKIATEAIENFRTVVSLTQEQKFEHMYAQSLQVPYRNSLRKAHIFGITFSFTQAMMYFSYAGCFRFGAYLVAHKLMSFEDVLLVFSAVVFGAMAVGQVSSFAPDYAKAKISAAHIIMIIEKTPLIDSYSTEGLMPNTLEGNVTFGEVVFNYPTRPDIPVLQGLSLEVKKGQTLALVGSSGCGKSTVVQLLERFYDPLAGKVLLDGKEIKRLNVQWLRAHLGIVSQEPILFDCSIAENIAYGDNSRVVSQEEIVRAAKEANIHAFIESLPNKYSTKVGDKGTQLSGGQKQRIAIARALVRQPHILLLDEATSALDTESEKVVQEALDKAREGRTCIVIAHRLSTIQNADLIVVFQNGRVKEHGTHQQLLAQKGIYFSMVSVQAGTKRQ

COc1ccc2cc1Oc1cccc(c1)C[C@H]1c3c(cc4c(c3Oc3cc5c(cc3OC)CCN(C)[C@@H]5C2)OCO4)CCN1C [CEPHARANTHIN]
pIC50 [1]: 5.69
Activity [2]: substrate [+]
